Measured values as given in ChEMBL document CHEMBL5335785, “Structure-based virtual screening discovers potent and selective adenosine A1 receptor antagonists” (Eur J Med Chem, 2023).

Key:
[1] = target: T1, Adenosine receptor A2a (Homo sapiens, UniProt P29274); assay: Antagonist activity at human A2AR expressed in Flp-In-CHO cells assessed as NECA-mediated cAMP accumulation incubated for 30 to 60 mins followed by NECA addition measured after 30 mins by LANCE cAMP assay (reference value: 8.38 +/- 0.03); format: functional, cell-based
T1 sequence (P29274 whole entry): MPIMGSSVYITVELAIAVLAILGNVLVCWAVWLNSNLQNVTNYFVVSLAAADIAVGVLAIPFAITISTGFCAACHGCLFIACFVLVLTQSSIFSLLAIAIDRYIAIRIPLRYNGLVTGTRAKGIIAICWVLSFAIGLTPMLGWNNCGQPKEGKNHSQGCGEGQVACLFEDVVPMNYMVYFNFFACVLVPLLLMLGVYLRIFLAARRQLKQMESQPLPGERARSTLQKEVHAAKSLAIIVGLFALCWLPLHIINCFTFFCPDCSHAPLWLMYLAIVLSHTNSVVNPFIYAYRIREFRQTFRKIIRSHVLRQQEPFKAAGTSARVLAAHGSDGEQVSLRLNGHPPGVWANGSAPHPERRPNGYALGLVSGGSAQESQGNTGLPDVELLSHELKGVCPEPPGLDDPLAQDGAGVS

[2] = target: T1, Adenosine receptor A2a; settings: Flp-In-CHO, time 60-90 min
[3] = target: T2, Adenosine receptor A1 (Homo sapiens) (UniProt P30542); settings: Flp-In-CHO, time 60-90 min
T2 sequence (whole entry): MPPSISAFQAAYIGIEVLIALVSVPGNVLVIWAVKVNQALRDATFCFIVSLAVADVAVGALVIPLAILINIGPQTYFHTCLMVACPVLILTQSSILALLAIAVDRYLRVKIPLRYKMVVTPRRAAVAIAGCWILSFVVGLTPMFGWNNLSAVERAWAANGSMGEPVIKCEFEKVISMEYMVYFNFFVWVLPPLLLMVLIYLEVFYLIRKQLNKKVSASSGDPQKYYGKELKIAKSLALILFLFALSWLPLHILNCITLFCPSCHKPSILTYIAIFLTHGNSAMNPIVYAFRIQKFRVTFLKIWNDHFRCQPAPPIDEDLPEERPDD

[4] = target: T3, Adenosine receptor A1 (Homo sapiens, UniProt P30542); assay: Antagonist activity at human A1R expressed in Flp-In-CHO cells assessed as NECA-mediated reduction in forskolin-stimulated cAMP accumulation incubated for 30 to 60 mins followed by forskolin/NECA addition measured after 30 mins by LANCE cAMP assay (reference value: 8.74 +/- 0.08); format: functional, cell-based
T3 sequence (P30542 whole entry): T2 sequence (whole entry)

[5] = target: T3, Adenosine receptor A1; assay: Displacement of [3H]DPCPX from human A1R expressed in Flp-In-CHO cells incubated for 12 hrs by microbeta plate counter analysis; format: cell-based

Row | Structure (SMILES) | EC50 [4] | pKb ([2]; filed as antagonist) | pKb ([3]; filed as antagonist) | also measured
1 | Cc1ccc2nc(C(=O)Nc3cnc4n3CCCC4)cn2c1 | – | – | – | EC50 [1]: 4.57 nM
2 | Cc1c(C(=O)Nc2nc3c(s2)Cc2ccccc2-3)ccc2cncn12 | – | – | – | pKb [2]: < 5.5; pKb [3]: < 5.5
3 | CC(=O)NC(CC(=O)Nc1nc(C(C)=O)cs1)c1ccc(C)cc1 (stereo unspecified) | 2.57 nM | – | – | –
4 | CC(=O)N1CCC(Nc2ncc(-c3ccncc3)c(-c3cccs3)n2)CC1 | – | 6.57 | 7.82 | –
5 | O=C(Nc1nc2c(s1)Cc1ccccc1-2)c1ncn2cc(Cl)ccc12 | – | – | – | pKb [3]: < 5.5
6 | CC1(CNc2ncc(-c3ccncc3)c(-c3cccs3)n2)COC1 | – | – | – | pKb [2]: < 5.5; pKb [3]: < 5.5
7 | CC1(C(=O)Nc2nc3c(s2)Cc2ccccc2-3)CCCC1 | – | 7.4 | 7.86 | –
8 | Cc1nnsc1C(=O)Nc1nc2c(s1)Cc1ccccc1-2 | – | – | – | EC50 [1]: 63.1 nM
9 | CC1(CNc2ncc(-c3ccncc3)c(-c3cccs3)n2)OCCO1 | – | – | 6.38 | pKb [2]: < 5.5
10 | O=C(Nc1noc(-c2ccccc2)n1)c1cccc(Cl)c1 | 2.82 nM | – | – | EC50 [1]: 10.5 nM
11 | c1csc(-c2nc(NC3CCCCCC3)ncc2-c2ccncc2)c1 | – | 6.79 | 8.1 | –
12 | O=C(Nc1nc2c(s1)Cc1ccccc1-2)C1CCCCC1 | – | 7 | 7.24 | –
13 | CC1(C(=O)Nc2nc3c(s2)Cc2ccccc2-3)CCC(=O)CC1 | – | 7.25 | 7.85 | –
14 | O=C(Nc1nc2ccccc2s1)N(CCO)C1CC1 | 3.63 nM | – | – | EC50 [1]: 6.03 nM
15 | CCC1CCC(C(=O)Nc2nc3c(s2)Cc2ccccc2-3)CC1 (stereo unspecified) | – | – | – | pKb [2]: < 5.5; pKb [3]: < 5.5
16 | O=C(Nc1nc2c(s1)Cc1ccccc1-2)C12CC3CC(CC1C3)C2 | – | 6.3 | 7.57 | Ki ([5]; read-out: Ki): 72 nM
17 | CC(C)(CNc1ncc(-c2ccncc2)c(-c2cccs2)n1)C1CCC1 | – | 6.09 | 7.15 | –

Row | Structure (SMILES) | EC50 [4] | pKb ([2]; filed as antagonist) | pKb ([3]; filed as antagonist) | also measured
18 | Cn1c(=O)c2[nH]c(N(CCO)CCO)nc2n(C)c1=O | 17 nM | – | – | Ki ([5]; read-out: pKi (converted)): 2820 nM; EC50 [1]: 6.92 nM
19 | COc1ccc(C(=O)Nc2nc(C)c3cc4c(cc3n2)OCO4)cc1 | 1.91 nM | – | – | –
20 | O=C(CC1CCCC1)N1CCc2c(nc(N3CCCC3)[nH]c2=O)C1 | – | – | – | EC50 [1]: 4.47 nM
21 | O=C(Nc1nc(C2CC2)cs1)C1COc2ccccc2C1 (stereo unspecified) | 3.24 nM | – | – | –
22 | c1csc(-c2nc(NC3CCC4(CC3)OCCO4)ncc2-c2ccncc2)c1 | – | 6.53 | 7.07 | –
23 | c1ccc(CNc2nc(N3CCCCC3)c3nccnc3n2)nc1 | 2.51 nM | – | – | –
24 | O=C(Nc1nc2c(s1)Cc1ccccc1-2)C1CCCCCC1 | – | 6.87 | 7.29 | –
25 | CC(C)N1CC(C(=O)Nc2nc3ccccc3[nH]2)CC1=O (stereo unspecified) | – | – | – | EC50 [1]: 20.4 nM
26 | CCOc1nc(NC(CO)c2ccco2)ncc1Br (stereo unspecified) | 14.8 nM | – | – | Ki ([5]; read-out: pKi (converted)): 2450 nM
27 | Cc1coc(C(=O)Nc2nc3c(s2)Cc2ccccc2-3)c1C | – | – | – | pKb [3]: < 5.5
28 | Cc1cccnc1C(=O)Nc1nc2c(s1)Cc1ccccc1-2 | – | – | – | pKb [3]: < 5.5
29 | CC(Sc1nnc(C(C)C)[nH]1)C(=O)c1ccccc1 (stereo unspecified) | 3.31 nM | – | – | –
30 | Cc1cccc(C(=O)Nc2nc3c(s2)Cc2ccccc2-3)c1C | – | – | 6.67 | pKb [2]: < 5.5
31 | COCC(O)CNc1ncc(C)c(-c2ncnn2C)n1 (stereo unspecified) | 2.34 nM | – | – | EC50 [1]: 4.57 nM
32 | COC1(OC)CC(C)(C(=O)Nc2nc3c(s2)Cc2ccccc2-3)C1 | – | 7.25 | 6.7 | –
33 | C=C1CCC(C(=O)Nc2nc3c(s2)Cc2ccccc2-3)CC1 | – | 7.03 | 7.7 | –
